{"source": "patent EP0322748B1", "about": "“Antibiotic NK86-0279, process for production of the same and application of the same” (NIPPON KAYAKU KABUSHIKI KAISHA, priority 1987, dated 1989)", "key": {"[1]": {"tested_on": "human pulmonary cancer cells (PC-3)", "assay": "growth-inhibitory effect on human pulmonary cancer cells, dye exclusion method", "format": "cell-based", "details": "72 h", "protocol": "(§1) The growth-inhibitory effects of the compound of the present invention on mouse pulmonary cancer cells (LL) and human plumonary cancer cells (PC-3) were examined.\n(§2) A 96-well plate was inoculated with mouse pulmonary cancer cells at a ratio of 8.0 x 10² cells per well, while another 96-well plate was inoculated with human pulmonary cancer cells at a ratio of 2.5 x 10³ per well. These cells were incubated in an incubator at 37°C under 5 % CO₂ for 24 hours. Then the compound of the present invention was added thereto at various concentrations. Cells in each well were counted by the dye exclusion method three days after the addition to thereby evaluate the growth-inhibitory effect of the test compound on the mouse pulmonary cancer cells (LL) and that on the human pulmonary cancer cells (PC-3)."}, "[2]": {"tested_on": "mouse malignant melanoma (B16 melanotic melanoma)", "assay": "in-vivo test by intraperitoneal administration against mouse malignant melanoma, tumor volume", "set-up": "species or system BDF₁ mouse", "details": "11 days after inoculation", "source_text": "The anti-cancer action of the compound of the present invention against mouse malignant melanoma (B16 melanotic melanoma) was examined. 4 x 10⁵ mouse malignant melanoma cells were inoculated into a subcutaneous portion of the right body side of a 8 week-old male BDF₁ mouse, and the compound of the present invention was intraperitoneally administered to the mouse in various concentrations every day from the next day of the inoculation once a day for 10 days. On the 11 days after the inoculation the minor axis and the major axis of the tumor were measured, and the volume of the tumor was determined by using the following equation: (minor axis)² x […] [formula] . Then, the percentage inhibition of proliferation of each tumor with respect to the compound of the present invention was determined from the ratio of the volume of the tumor on the groups of administration of the compound of the present invention relative to that on the control group."}, "[3]": {"tested_on": "mouse malignant melanoma (B16 melanotic melanoma)", "assay": "in-vivo test by peroral administration against mouse malignant melanoma, tumor volume", "set-up": "species or system C57BL/6 mouse", "source_text": "The anti-cancer action of the compound of the present invention against mouse malignant melanoma (B16 melanotic melanoma) was examined. 5 x 10⁵ mouse malignant melanoma cells were inoculated into a subcutaneous portion of the right body side of a 6 week-old male C57BL/6 mouse, and the compound of the present invention was perorally administered to the mouse in various concentrations every day from the next day or from 7 days after the inoculation once a day for 5 days. On the 11 days after the inoculation, the minor axis and the major axis of the tumor were measured, and the volume of the tumor was determined by using the following equation: (minor axis)² x […] [formula] . Then, the percentage inhibition of proliferation of each tumor with respect to the compound of the present invention was determined from the ratio of the volume of the tumor on the groups of administration of the compound of the present invention relative to that on the control group."}, "[4]": {"tested_on": "vascularization by the Ehrlich ascites tumor cells crude extract", "assay": "vascularization-inhibitory effect, corneal assay", "format": "in vivo", "details": "slow-releasing pellet in rabbit cornea, compared with a control group", "protocol": "The vascularization-inhibitory effect of the compound of the present invention was examined by corneal assay reported by M.A. Gimbrone et al. (J. National Cancer Inst., 52, 413 (1974)). Namely, the center of the cornea of the eye of a rabbit was incised with a knife at a length of approximately 2 mm to thereby form a pouch. Then a slow-releasing pellet containing 100 µg of a crude extract of Ehrlich ascites tumor cells, which had been preliminarily prepared according to a method proposed by R. Langer et al. (Nature, 263, 797 […]), was introduced into the pouch. Further another slow-releasing pellet containing 0.3 to 81 µg of the compound of the present invention was introduced thereinto so as to contact these pellets with each other. Then the degree of vascularization was observed four, six, eight and ten days after the introduction."}, "[5]": {"tested_on": "mouse pulmonary cancer cells (LL)", "assay": "growth-inhibitory effect on mouse pulmonary cancer cells, dye exclusion method", "format": "cell-based", "details": "72 h", "protocol": "as §1, §2"}, "[6]": {"tested_on": "mouse melanoma cells (B16)", "assay": "growth-inhibitory effect on mouse melanoma cells, dye exclusion method", "format": "cell-based", "protocol": "The growth-inhibitory effects of the compound of the present invention on mouse melanoma cells (B16) and human melanoma cells (A375) were examined. A 96-well plate was inoculated with mouse melanoma cells at a ratio of 1.5 x 10³ cells per well, while another 96-well plate was inoculated with human melanoma cells at a ratio of 1.0 x 10³ per well. These cells were incubated in an incubator at 37°C under 5 % CO₂. Then the compound of the present invention was added thereto at various concentrations. Cells in each well were counted by the dye exclusion method 65 hours after the addition to thereby evaluate the growth-inhibitory effect of the test compound on the mouse melanoma cells and that on the human melanoma cells."}, "solubility": {"assay": "solubility", "format": "physicochemical"}}}
{"compound": "CCC1C=CC=CCC(C)C(O)C(C)(O)C(=O)C(C)C(O)C(C)C(=O)C(C)C(O)C(C)C=CC(=O)OC2C(C)C(CC1)OC1(OC(CC(C)O)C(C)CC1=O)C2CC", "note": "(stereo not shown) [NK86-0279]", "values": [{"measurement": "IC50", "setting": "[1]; human pulmonary cancer cells (PC-3), three days after the addition, read-out: IC₅₀", "result": 2.13, "unit": "µg/mL"}, {"measurement": "inhibition at 0.024 µg/mL", "setting": "[1]; Homo sapiens, PC-3, 0.024 µg/ml, read-out: Growth-inhibitory ratio", "result": 25.1, "unit": "%"}, {"measurement": "inhibition at 0.061 µg/mL", "setting": "[1]; Homo sapiens, PC-3, 0.061 µg/ml, read-out: Growth-inhibitory ratio", "result": 12, "unit": "%"}, {"measurement": "inhibition at 0.098 µg/mL", "setting": "[1]; Homo sapiens, PC-3, 0.098 µg/ml, read-out: Growth-inhibitory ratio", "result": 28.1, "unit": "%"}, {"measurement": "inhibition at 0.39 µg/mL", "setting": "[1]; Homo sapiens, PC-3, 0.39 µg/ml, read-out: Growth-inhibitory ratio", "result": 28, "unit": "%"}, {"measurement": "inhibition at 1.56 µg/mL", "setting": "[1]; Homo sapiens, PC-3, 1.56 µg/ml, read-out: Growth-inhibitory ratio", "result": 38.1, "unit": "%"}, {"measurement": "inhibition at 6.25 µg/mL", "setting": "[1]; Homo sapiens, PC-3, 6.25 µg/ml, read-out: Growth-inhibitory ratio", "result": 85.9, "unit": "%"}, {"measurement": "inhibition at 25 µg/mL", "setting": "[1]; Homo sapiens, PC-3, 25 µg/ml, read-out: Growth-inhibitory ratio", "result": 99.3, "unit": "%"}, {"measurement": "inhibition at 100 µg/mL", "setting": "[1]; Homo sapiens, PC-3, 100 µg/ml, read-out: Growth-inhibitory ratio", "result": 97.2, "unit": "%"}, {"measurement": "Growth-inhibitory ratio (tumor volume)", "setting": "[2]; 0.012 mg/kg intraperitoneally once a day for 10 days", "result": 50.7, "unit": "%"}, {"measurement": "Growth-inhibitory ratio (tumor volume)", "setting": "[2]; 0.021 mg/kg intraperitoneally once a day for 10 days", "result": 19.3, "unit": "%"}, {"measurement": "Growth-inhibitory ratio (tumor volume)", "setting": "[2]; 0.037 mg/kg intraperitoneally once a day for 10 days", "result": 41.4, "unit": "%"}, {"measurement": "Growth-inhibitory ratio (tumor volume)", "setting": "[2]; 0.064 mg/kg intraperitoneally once a day for 10 days", "result": 40.5, "unit": "%"}, {"measurement": "Growth-inhibitory ratio (tumor volume)", "setting": "[2]; 0.111 mg/kg intraperitoneally once a day for 10 days", "result": 38.4, "unit": "%"}, {"measurement": "Growth-inhibitory ratio (tumor volume)", "setting": "[2]; 0.192 mg/kg intraperitoneally once a day for 10 days", "result": 54.7, "unit": "%"}, {"measurement": "Growth-inhibitory ratio (tumor volume)", "setting": "[2]; 0.333 mg/kg intraperitoneally once a day for 10 days", "result": 53.2, "unit": "%"}, {"measurement": "Growth-inhibitory ratio (tumor volume)", "setting": "[2]; 0.577 mg/kg intraperitoneally once a day for 10 days", "result": 60.4, "unit": "%"}, {"measurement": "Growth-inhibitory ratio (tumor volume)", "setting": "[2]; 1.000 mg/kg intraperitoneally once a day for 10 days", "result": 80, "unit": "%"}, {"measurement": "Growth-inhibitory ratio (tumor volume)", "setting": "[3]; 0.5 mg/kg perorally once a day for 5 days, administered from 7 days after the inoculation", "result": 44.7, "unit": "%"}, {"measurement": "Growth-inhibitory ratio (tumor volume)", "setting": "[3]; 0.5 mg/kg perorally once a day for 5 days, administered from the next day of the inoculation", "result": 90.5, "unit": "%"}, {"measurement": "Growth-inhibitory ratio (tumor volume)", "setting": "[3]; 1.0 mg/kg perorally once a day for 5 days, administered from 7 days after the inoculation", "result": 72.3, "unit": "%"}, {"measurement": "Growth-inhibitory ratio (tumor volume)", "setting": "[3]; 1.0 mg/kg perorally once a day for 5 days, administered from the next day of the inoculation", "result": 94.6, "unit": "%"}, {"measurement": "Growth-inhibitory ratio (tumor volume)", "setting": "[3]; 2.0 mg/kg perorally once a day for 5 days, administered from 7 days after the inoculation", "result": 57.4, "unit": "%"}, {"measurement": "Growth-inhibitory ratio (tumor volume)", "setting": "[3]; 2.0 mg/kg perorally once a day for 5 days, administered from the next day of the inoculation", "result": 69.5, "unit": "%"}, {"measurement": "Growth-inhibitory ratio (tumor volume)", "setting": "[3]; 4.0 mg/kg perorally once a day for 5 days, administered from 7 days after the inoculation", "result": 75.5, "unit": "%"}, {"measurement": "Growth-inhibitory ratio (tumor volume)", "setting": "[3]; 4.0 mg/kg perorally once a day for 5 days, administered from the next day of the inoculation", "result": 64.5, "unit": "%"}, {"measurement": "Growth-inhibitory ratio (tumor volume)", "setting": "[3]; 8.0 mg/kg perorally once a day for 5 days, administered from 7 days after the inoculation", "result": 67.0, "unit": "%"}, {"measurement": "Growth-inhibitory ratio (tumor volume)", "setting": "[3]; 8.0 mg/kg perorally once a day for 5 days, administered from the next day of the inoculation", "result": 66.0, "unit": "%"}, {"measurement": "degree of vascularization", "setting": "[4]; 1 µg or above", "result": "significantly retarded till the fourth day"}, {"measurement": "degree of vascularization", "setting": "[4]; 1.7 µg or above", "result": "till the eighth day"}, {"measurement": "IC50", "setting": "[5]; mouse pulmonary cancer cells (LL), three days after the addition, read-out: IC₅₀", "result": 0.0098, "unit": "µg/mL"}, {"measurement": "inhibition at 0.024 µg/mL", "setting": "[5]; Mus musculus, LL, 0.024 µg/ml, read-out: Growth-inhibitory ratio", "result": 30.4, "unit": "%"}, {"measurement": "inhibition at 0.061 µg/mL", "setting": "[5]; Mus musculus, LL, 0.061 µg/ml, read-out: Growth-inhibitory ratio", "result": -5.7, "unit": "%"}, {"measurement": "inhibition at 0.098 µg/mL", "setting": "[5]; Mus musculus, LL, 0.098 µg/ml, read-out: Growth-inhibitory ratio", "result": 50, "unit": "%"}, {"measurement": "inhibition at 0.39 µg/mL", "setting": "[5]; Mus musculus, LL, 0.39 µg/ml, read-out: Growth-inhibitory ratio", "result": 61, "unit": "%"}, {"measurement": "inhibition at 1.56 µg/mL", "setting": "[5]; Mus musculus, LL, 1.56 µg/ml, read-out: Growth-inhibitory ratio", "result": 92.1, "unit": "%"}, {"measurement": "inhibition at 6.25 µg/mL", "setting": "[5]; Mus musculus, LL, 6.25 µg/ml, read-out: Growth-inhibitory ratio", "result": 114, "unit": "%"}, {"measurement": "inhibition at 25 µg/mL", "setting": "[5]; Mus musculus, LL, 25 µg/ml, read-out: Growth-inhibitory ratio", "result": 110, "unit": "%"}, {"measurement": "inhibition at 100 µg/mL", "setting": "[5]; Mus musculus, LL, 100 µg/ml, read-out: Growth-inhibitory ratio", "result": 109, "unit": "%"}, {"measurement": "inhibition at 0.0061 µg/mL", "setting": "[6]; Mus musculus, 65 h, B16, 0.0061 µg/ml, read-out: Growth-inhibitory ratio", "result": 5.3, "unit": "%"}, {"measurement": "inhibition at 0.024 µg/mL", "setting": "[6]; Mus musculus, 65 h, B16, 0.024 µg/ml, read-out: Growth-inhibitory ratio", "result": 36.8, "unit": "%"}, {"measurement": "inhibition at 0.098 µg/mL", "setting": "[6]; Mus musculus, 65 h, B16, 0.098 µg/ml, read-out: Growth-inhibitory ratio", "result": 43.1, "unit": "%"}, {"measurement": "inhibition at 0.39 µg/mL", "setting": "[6]; Mus musculus, 65 h, B16, 0.39 µg/ml, read-out: Growth-inhibitory ratio", "result": 45.3, "unit": "%"}, {"measurement": "inhibition at 1.56 µg/mL", "setting": "[6]; Mus musculus, 65 h, B16, 1.56 µg/ml, read-out: Growth-inhibitory ratio", "result": 48.9, "unit": "%"}, {"measurement": "inhibition at 6.25 µg/mL", "setting": "[6]; Mus musculus, 65 h, B16, 6.25 µg/ml, read-out: Growth-inhibitory ratio", "result": 89.7, "unit": "%"}, {"measurement": "inhibition at 25 µg/mL", "setting": "[6]; Mus musculus, 65 h, B16, 25 µg/ml, read-out: Growth-inhibitory ratio", "result": 105, "unit": "%"}, {"measurement": "inhibition at 100 µg/mL", "setting": "[6]; Mus musculus, 65 h, B16, 100 µg/ml, read-out: Growth-inhibitory ratio", "result": 105, "unit": "%"}, {"measurement": "IC50", "setting": "[6]; mouse melanoma cells (B16), 65 hours after the addition, read-out: IC₅₀", "result": 1.62, "unit": "µg/mL"}, {"measurement": "solubility", "setting": "solubility; in hexane", "result": "hardly soluble"}, {"measurement": "solubility", "setting": "solubility; in methanol, acetone, ethyl acetate and dimethyl sulfoxide", "result": "soluble"}, {"measurement": "solubility", "setting": "solubility; in organic solvents such as methanol, acetone, ethyl acetate and ethanol", "result": "soluble"}, {"measurement": "solubility", "setting": "solubility; in water", "result": "hardly soluble"}]}
